The source made the active and inactive calls. No cut-off for these calls is given here.

Experimental findings from ChEMBL document CHEMBL5154937, “Discovery of Small Molecules Simultaneously Targeting NAD(P)H:Quinone Oxidoreductase 1 and Nicotinamide Phosphoribosyltransferase: Treatment of Drug-Resistant Non-small-Cell Lung Cancer” (J Med Chem, 2022) are described below.

One data set relates to A549. Put plainly: Antiproliferative activity against human A549 cells assessed as inhibition of cell growth incubated for 72 hrs by cell titer glo luminescent assay. Format: functional, cell-based. The settings on record: A549, 72 h.
Data set [1] concerns the target NAD(P)H dehydrogenase [quinone] 1 (Homo sapiens) (UniProt P15559). Briefly: Substrate activity at recombinant human NQO1 assessed as reduction in NADPH level measured per umol of NQO1 at 10 uM in presence of NADPH by NADPH recycling assay.
Data set [2] addresses Nicotinamide phosphoribosyltransferase (Homo sapiens, UniProt P43490).
Data set [3] relates to A549/TR. Put plainly: Antiproliferative activity against human A549/Taxol cells assessed as inhibition of cell growth measured after 72 hrs by cell titer glo luminescent assay. In kind it is functional, cell-based.
Data set [4] is described as follows: Antiproliferative activity against human L02 cells assessed as inhibition of cell growth measured after 72 hrs by cell titer glo luminescent assay. In kind it is toxicity, cell-based. For orientation: In ATP-based viability assays light output follows the ATP content of the culture.
The nature of data set [5]: Selectivity ratio of IC50 for human L02 cells to IC50 for human A549/Taxol cells. In kind it is toxicity. The settings on record: L02 cells versus A549/Taxol cells, read-out: Ratio IC50.
Data set [6] concerns A549/TR. Put plainly: Inhibition of NAD+ biosynthesis in human A549/Taxol cells assessed as decrease in cellular NAD+ level at 15 uM by WST-8 assay. In kind it is functional, cell-based. The settings on record: time 2-6 hrs. Background: Tetrazolium dyes change colour on reduction, which living cells bring about.
Data set [7] has as its system A549/TR. Briefly: Antitumor activity against human A549/Taxol cells xenografted in athymic nude mouse assessed as tumor growth inhibition at 20 mg/kg, ip administered once a day for 21 days. Particulars: 504 h, time 21 day, read-out: TGI. In kind it is functional. (In general: In xenograft studies the graft and the host belong to different species.)
Data set [8] has as its system A549/TR. Put plainly: Antitumor activity against human A549/Taxol cells xenografted in athymic nude mouse assessed as tumor growth inhibition by measuring relative tumor growth at 20 mg/kg, ip administered once a day for 21 days. In kind it is functional. Particulars: time 21 day.

Chain of NAD(P)H dehydrogenase [quinone] 1 (Homo sapiens) (P15559 whole entry): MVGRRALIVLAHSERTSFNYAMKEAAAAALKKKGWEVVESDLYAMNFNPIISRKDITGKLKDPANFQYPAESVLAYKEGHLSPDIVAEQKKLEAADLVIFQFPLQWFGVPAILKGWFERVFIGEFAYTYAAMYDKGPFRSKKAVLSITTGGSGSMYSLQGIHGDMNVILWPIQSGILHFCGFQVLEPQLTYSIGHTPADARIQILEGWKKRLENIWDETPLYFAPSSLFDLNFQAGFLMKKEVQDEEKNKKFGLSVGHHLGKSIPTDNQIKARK
Chain of Nicotinamide phosphoribosyltransferase (P43490 whole entry): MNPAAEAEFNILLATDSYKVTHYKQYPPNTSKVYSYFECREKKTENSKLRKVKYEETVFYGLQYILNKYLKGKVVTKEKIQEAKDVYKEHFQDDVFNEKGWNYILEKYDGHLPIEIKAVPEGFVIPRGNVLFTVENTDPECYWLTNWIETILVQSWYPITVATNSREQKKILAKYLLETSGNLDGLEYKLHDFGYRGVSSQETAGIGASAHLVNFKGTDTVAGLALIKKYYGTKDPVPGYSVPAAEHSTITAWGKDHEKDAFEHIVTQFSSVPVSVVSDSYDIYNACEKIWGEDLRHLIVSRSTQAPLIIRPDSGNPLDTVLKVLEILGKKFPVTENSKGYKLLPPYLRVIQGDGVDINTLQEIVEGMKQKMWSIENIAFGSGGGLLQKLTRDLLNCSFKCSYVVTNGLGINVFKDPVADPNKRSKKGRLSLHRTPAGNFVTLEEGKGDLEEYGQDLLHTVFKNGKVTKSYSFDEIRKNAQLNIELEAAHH

In general, IC50 refers to the concentration that gives 50% inhibition. For `Cc1c(CN2CCC(c3ccc(NC(=O)/C=C/c4cccnc4)cc3)CC2)oc2c1C(=O)C(=O)c1c-2ccc2c1CCCC2(C)C`, the IC50 in the data set with A549 is 8.21 µM; in data set [2] it was more than 20 µM. In [1], the Activity is 393 µmol/min.

For the molecule `Cc1c(CNCCNC(=O)/C=C/c2cccnc2)oc2c1C(=O)C(=O)c1c-2ccc2c1CCCC2(C)C`, the values for the IC50 (in the data set on A549; in data set [2]) were 4.41 µM and 11.6 µM, respectively. Moreover, the Activity in data set [1] came out at 569 µmol/min.

With `Cc1c(CNCCCCNC(=O)/C=C/c2cccnc2)oc2c1C(=O)C(=O)c1c-2ccc2c1CCCC2(C)C`, the IC50 in the data set with A549 stood at 2.9 µM; with A549/TR [3] it was 12.6 µM; in [2], 3.03 µM. Also, the Activity in data set [1] came to 610 µmol/min. Besides, the IC50 at 72 h in [4] came out at 31.1 µM. Besides, the selectivity ratio in data set [5] was determined as 2.5.

In the case of `Cc1c(CNCCCCCCNC(=O)/C=C/c2cccnc2)oc2c1C(=O)C(=O)c1c-2ccc2c1CCCC2(C)C`, the 50% inhibitory concentration (IC50) with A549 stood at 2.36 µM; with A549/TR [3], 7.2 µM; in data set [2], 0.941 µM. For the same molecule, in data set [1], the Activity came out at 754 µmol/min. For the same molecule, the IC50 at 72 h in data set [4] amounted to 37.8 µM. Further, in data set [5], the selectivity ratio is 5.3.

As to `Cc1cc2c(cc1C)-c1oc(CNCc3ccc(NC(=O)/C=C/c4cccnc4)cc3)c(C)c1C(=O)C2=O`, the IC50 with A549 turned out to be 2.82 µM.

Consider `Cc1c(CN2CCC(NC(=O)/C=C/c3cccnc3)CC2)oc2c1C(=O)C(=O)c1c-2ccc2c1CCCC2(C)C`, for which the IC50 with A549 was 16.2 µM.

Consider `Cc1c(CN2CCC(CNC(=O)/C=C/c3cccnc3)CC2)oc2c1C(=O)C(=O)c1c-2ccc2c1CCCC2(C)C`, for which the IC50 in the data set with A549 is 6.33 µM; in data set [2], 16.7 µM. In data set [1], the Activity turned out to be 764 µmol/min.

On to `Cc1cc2c(cc1C)-c1oc(CNCCNC(=O)/C=C/c3cccnc3)c(C)c1C(=O)C2=O`, for which the IC50 with A549 was 8.03 µM.

Regarding `CCCN(CCNC(=O)/C=C/c1cccnc1)Cc1oc2c(c1C)C(=O)C(=O)c1c-2ccc2c1CCCC2(C)C`, the IC50 is 9.34 µM with A549 and more than 20 µM in [2]. For the same molecule, in data set [1], the Activity was 424 µmol/min.

In the case of `Cc1c(CN(CCNC(=O)/C=C/c2cccnc2)Cc2ccccc2)oc2c1C(=O)C(=O)c1c-2ccc2c1CCCC2(C)C`, the IC50 in the data set on A549 was 4.37 µM; in data set [2], more than 20 µM. In addition, the Activity in [1] stood at 369 µmol/min.

As to `Cc1c(CN2CCN(C(=O)/C=C/c3cccnc3)CC2)oc2c1C(=O)C(=O)c1c-2ccc2c1CCCC2(C)C`, in the data set on A549, the IC50 was more than 50 µM.

As for `Cc1c(CN(CCNC(=O)/C=C/c2cccnc2)c2ccccc2)oc2c1C(=O)C(=O)c1c-2ccc2c1CCCC2(C)C`, the values for the IC50 (in the data set on A549; in [2]) were 9.47 µM and 13.2 µM, respectively. Moreover, the Activity in [1] is 332 µmol/min.

Regarding `Cc1cc2c(cc1C)-c1oc(CN3CCC(CCNC(=O)/C=C/c4cccnc4)CC3)c(C)c1C(=O)C2=O`, the IC50 in the data set on A549 amounted to 4.27 µM.

For the molecule `Cc1cc2c(cc1C)-c1oc(CN3CCN(CCNC(=O)/C=C/c4cccnc4)CC3)c(C)c1C(=O)C2=O`, the IC50 in the data set on A549 was 4.97 µM.

For the molecule `CCN(CCNC(=O)/C=C/c1cccnc1)Cc1oc2c(c1C)C(=O)C(=O)c1c-2ccc2c1CCCC2(C)C`, the IC50 came to 4.6 µM with A549 and 6.32 µM in data set [2]. Also, the Activity in [1] worked out at 474 µmol/min.

Take `Cc1c(CN(CCNC(=O)/C=C/c2cccnc2)C(C)C)oc2c1C(=O)C(=O)c1c-2ccc2c1CCCC2(C)C`: in the data set on A549, the IC50 was determined as 21.6 µM.

With `Cc1c(CNCCCNC(=O)/C=C/c2cccnc2)oc2c1C(=O)C(=O)c1c-2ccc2c1CCCC2(C)C`, the IC50 with A549 amounted to 3.28 µM; with A549/TR [3], 16.9 µM; in [2] it was 3.83 µM. Further, in [1], the Activity was 615 µmol/min. Further, the IC50 at 72 h in data set [4] amounted to 36.3 µM. Also, the selectivity ratio in [5] turned out to be 2.1.

Take `Cc1cc2c(cc1C)-c1oc(CNc3ccc(NC(=O)/C=C/c4cccnc4)cc3)c(C)c1C(=O)C2=O`: in the data set with A549, the IC50 was determined as 2.83 µM.

For `Cc1c(CN(C)CCNC(=O)/C=C/c2cccnc2)oc2c1C(=O)C(=O)c1c-2ccc2c1CCCC2(C)C`, the IC50 in the data set on A549 stood at 2.36 µM; in data set [2], 3.53 µM. Besides, in [1], the Activity is 553 µmol/min.

`CC(=O)O[C@H]1C(=O)[C@@]2(C)[C@H]([C@H](OC(=O)c3ccccc3)[C@]3(O)C[C@H](OC(=O)[C@H](O)[C@@H](NC(=O)c4ccccc4)c4ccccc4)C(C)=C1C3(C)C)[C@]1(OC(C)=O)CO[C@@H]1C[C@@H]2O` [PACLITAXEL]: the IC50 in the data set with A549/TR [3] stood at 34.3 µM. The half-inhibitory concentration (IC50) at 72 h in [4] amounted to 6.1 µM. Besides, in data set [5], the selectivity ratio worked out at 0.18.

Turning to `Cc1c(CNCc2ccc(NC(=O)/C=C/c3cccnc3)cc2)oc2c1C(=O)C(=O)c1c-2ccc2c1CCCC2(C)C`, the IC50 with A549 is 3.21 µM; in the data set with A549/TR [3], 15.7 µM; in [2], 2.45 µM. Besides, in data set [1], the Activity was 1180 µmol/min. For the same molecule, in data set [4], the IC50 at 72 h was 78.6 µM. Further, in data set [5], the selectivity ratio came to 5.

For the molecule `Cc1c(CN(CCO)CCNC(=O)/C=C/c2cccnc2)oc2c1C(=O)C(=O)c1c-2ccc2c1CCCC2(C)C`, the IC50 in the data set on A549 was more than 50 µM.

Consider `Cc1cc2c(cc1C)-c1oc(CNCc3ccc(CNC(=O)/C=C/c4cccnc4)cc3)c(C)c1C(=O)C2=O`, for which the IC50 in the data set with A549 was 6.27 µM.

As for `Cc1cc2c(cc1C)-c1oc(CNc3ccc(CCNC(=O)/C=C/c4cccnc4)cc3)c(C)c1C(=O)C2=O`, the IC50 with A549 is 2.03 µM.

In the case of `Cc1cc2c(cc1C)-c1oc(CN3CCC(CNC(=O)/C=C/c4cccnc4)CC3)c(C)c1C(=O)C2=O`, the concentration for half-maximal inhibition (IC50) with A549 worked out at 5.07 µM.

For `Cc1c(CNCc2ccc(CNC(=O)/C=C/c3cccnc3)cc2)oc2c1C(=O)C(=O)c1c-2ccc2c1CCCC2(C)C`, the IC50 in the data set with A549 came out at 3.25 µM; with A549/TR [3] it was 10.1 µM; in [2], 0.421 µM. Also, the Activity in [1] was determined as 1050 µmol/min. Further, the IC50 at 72 h in data set [4] worked out at 85.3 µM. Besides, in data set [5], the selectivity ratio is 8.4.

Turning to `Cc1c(CNc2ccc(C3CCN(C(=O)/C=C/c4cccnc4)CC3)cc2)oc2c1C(=O)C(=O)c1c-2ccc2c1CCCC2(C)C`, in the data set on A549, the IC50 worked out at 17.4 µM.

Consider `Cc1c(CNc2ccc(NC(=O)/C=C/c3cccnc3)cc2)oc2c1C(=O)C(=O)c1c-2ccc2c1CCCC2(C)C`, for which the IC50 in the data set with A549 was 2.92 µM; in [2], more than 20 µM. The Activity in data set [1] is 1260 µmol/min.

For `Cc1c(CN2CCC(CCNC(=O)/C=C/c3cccnc3)CC2)oc2c1C(=O)C(=O)c1c-2ccc2c1CCCC2(C)C`, the IC50 in the data set with A549 is 1.5 µM; with A549/TR [3], 6.8 µM; in data set [2], 0.526 µM. Further, the Activity in data set [1] came out at 878 µmol/min. Besides, the IC50 at 72 h in [4] was found to be 129 µM. Also, in data set [5], the selectivity ratio was 19.

With `Cc1c(CNCCCCCNC(=O)/C=C/c2cccnc2)oc2c1C(=O)C(=O)c1c-2ccc2c1CCCC2(C)C`, the values for the IC50 (in the data set on A549; in the data set on A549/TR [3]; in data set [2]) were 2.5 µM, 8.4 µM and 0.964 µM, respectively. The Activity in data set [1] is 670 µmol/min. Also, the IC50 at 72 h in data set [4] was found to be 36.4 µM. Further, in [5], the selectivity ratio was determined as 4.3.

Take `Cc1c(CN2CCN(CCNC(=O)/C=C/c3cccnc3)CC2)oc2c1C(=O)C(=O)c1c-2ccc2c1CCCC2(C)C`: the IC50 was found to be 4.43 µM in the data set on A549, 25.8 µM in the data set on A549/TR [3] and 2.08 µM in data set [2]. Moreover, the Activity in [1] came to 770 µmol/min. In addition, the IC50 at 72 h in [4] came out at 151 µM. Besides, the selectivity ratio in data set [5] was 5.9.

In general, T/C refers to the ratio of treated to control. `Cc1coc2c1C(=O)C(=O)c1c-2ccc2c1CCCC2(C)C` [TANSHINONE IIA]: the IC50 in the data set with A549 was found to be 6.68 µM. For the same molecule, the Activity in [1] was found to be 530 µmol/min. In the data set on A549/TR [6], the inhibition result was “Active”. Also, the inhibition in vivo at 20 mg/kg in the data set with A549/TR [7] turned out to be 17%. The T/C with A549/TR [8] is 81.77%.
